Positions of bridges follow the written chain, without caps; N, C: chain ends. Residues, ends and D or L forms follow the SMILES beside them.
Legend:
[1] = molecular target: T1, rKV1.1 (Rattus norvegicus, UniProt P10499); experiment: Two-electrode voltage-clamp on Xenopus laevis oocytes expressing rKV1.1; assay type: cell-based; conditions: concentration-response curve, percentage blocked current fitted with Hill equation; TEVC oocytes, 0 mV from −90 mV; mean ± SE, n ≥ 3; SEM; read-out: KV1.1 IC50
T1 construct: expressed in transfected cells; host or cells: Xenopus laevis oocytes injected with cRNA
Method: (§1) The pharmacological effect of AbeTx1 was analyzed by heterologous expression of 12 voltage-gated potassium channels isoforms (rKV1.1, Genbank NM173095; rKV1.2, Genbank NM012970; hKV1.3, Genbank L23499; rKV1.4,Genbank NM012971; rKV1.5, Genbank NM012972; rKV1.6, Genbank NM575671; Shaker IR from Drosophila melanogaster, Genbank CG12348; rKV2.1, Genbank NM013186; hKV3.1, Genbank NM004976; rKV4.2, Genbank NM031730; rKV4.3, Genbank NM031739 and hERG, Genbank NM000238), and three voltage-gated sodium channel subtypes (rNaV1.2, Genbank NM012647; rNaV1.4, Genbank M26643 and BgNaV1.1, from Blattella germanica) (r, rat; h, human) in oocytes from Xenopus laevis. The linearized plasmids were transcribed using a T7 or SP6 mMESSAGE-mMACHINE transcription kit (Life Technologies, Austin, TX, USA). Oocytes were injected with 20–50 nL of cRNA at a concentration of 1 ng·nL^−1 using a microinjector (Drummond Scientific, Broomall, PA, USA). The oocytes were stored for 1–3 days at 16 °C until sufficient expression of voltage-gated ion channels was achieved. Oocytes were maintained in an ND96 solution (in mM: 96 NaCl, 2 KCl, 1.8 CaCl2, 2 MgCl2 and 5 HEPES; pH 7.4), supplemented with 50 µg·mL^−1 gentamicin sulfate.
(§2) Two-electrode voltage-clamp recordings were performed at room temperature (18–22 °C) using a Geneclamp 500 amplifier (Molecular Devices, Sunnyvale, CA, USA) controlled by a pClamp data acquisition system (Axon Instruments, Union City, CA, USA). ND96 was used as bath solution. Whole-cell currents from oocytes were recorded 1–3 days after injection. Voltage and current electrodes were filled with KCl (3 M). The resistance of both electrodes was kept between 0.8–1.0 MΩ. The elicited currents were filtered at 0.5 or 2 kHz using a four-pole low-pass Bessel filter. Leak subtraction was performed using a -P/4 protocol. KV1.1-KV1.6 and Shaker IR currents were evoked by 500 ms depolarization to 0 mV, followed by a 500 ms pulse to −50 mV, from a holding potential of −90 mV. KV2.1, KV3.1, KV4.2, and KV4.3 currents were elicited by 500 ms pulses to + 20 mV from a holding potential of −90 mV. Current traces of hERG channels were elicited by applying a +40 mV pulse for 2.5 s, followed by a step to −120 mV for 2.5 s. Sodium current traces were evoked by 100 ms depolarization steps from a holding potential of −90 mV to 0 mV. Concentration-response curves were constructed by adding different AbeTx1 or analogs concentrations directly to the bath solution. The percentage of the KV blockade was plotted against the logarithm of the applied concentrations and fitted with the Hill Equation (1):y = 100/[1 + (IC50/[toxin]) × h](1) where y is the amplitude of the toxin-induced effect, IC50 is the toxin concentration at half-maximal efficacy, [toxin] is the toxin concentration, and h is the Hill coefficient. To investigate the effects on the voltage dependence of activation, current traces were evoked by 10 mV depolarization steps from a holding potential of −90 mV. Data were normalized to the maximal K^+ current amplitude, plotted against prepulse potential, and fitted using the Boltzmann Equation (2):IK/Imax = [1 + (exp(Vg − V)/k] − 1(2) where Imax represents maximal potassium current (IK), Vg is the voltage corresponding to half-maximal current, and k is the slope factor. Each experimental data represents mean ± standard error of at least three oocytes (n ≥ 3) from different frogs. Effect of the toxin on current-voltage experiments was statistically examined by comparing the control condition and the presence of toxin using the Student’s paired t-test. P-values < 0.05 are considered to be statistically significant. Data were analyzed using Clampfit 10.4 (Molecular Devices, Sunnyvale, CA, USA) and Origin v8.1 software (Origin Lab, Northampton, MA, USA), under the institutional license of the University of São Paulo.

[2] = molecular target: T2, rKV1.6 (Rattus norvegicus, UniProt P17659); experiment: Two-electrode voltage-clamp on Xenopus laevis oocytes expressing rKV1.6; assay type: cell-based; conditions: concentration-response curve, percentage blocked current fitted with Hill equation; TEVC oocytes, 0 mV from −90 mV; mean ± SE, n ≥ 3; SEM; read-out: KV1.6 IC50
T2 construct: expressed in transfected cells; host or cells: Xenopus laevis oocytes injected with cRNA
Method: as §1, §2

T2 sequence (P17659 whole entry): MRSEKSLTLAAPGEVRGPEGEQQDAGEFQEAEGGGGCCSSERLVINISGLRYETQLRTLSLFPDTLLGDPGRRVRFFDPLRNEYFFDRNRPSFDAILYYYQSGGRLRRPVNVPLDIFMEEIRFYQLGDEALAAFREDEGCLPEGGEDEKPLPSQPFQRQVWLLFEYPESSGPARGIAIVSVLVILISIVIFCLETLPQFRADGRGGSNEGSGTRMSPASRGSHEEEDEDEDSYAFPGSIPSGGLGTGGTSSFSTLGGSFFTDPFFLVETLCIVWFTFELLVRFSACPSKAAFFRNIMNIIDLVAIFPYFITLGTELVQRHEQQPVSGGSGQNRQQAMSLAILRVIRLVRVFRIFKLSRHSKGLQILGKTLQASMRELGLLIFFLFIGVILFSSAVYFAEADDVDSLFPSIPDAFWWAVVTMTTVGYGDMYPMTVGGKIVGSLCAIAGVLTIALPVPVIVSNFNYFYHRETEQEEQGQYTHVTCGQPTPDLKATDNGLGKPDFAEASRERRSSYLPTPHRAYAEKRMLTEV
T1 sequence (P10499 whole entry): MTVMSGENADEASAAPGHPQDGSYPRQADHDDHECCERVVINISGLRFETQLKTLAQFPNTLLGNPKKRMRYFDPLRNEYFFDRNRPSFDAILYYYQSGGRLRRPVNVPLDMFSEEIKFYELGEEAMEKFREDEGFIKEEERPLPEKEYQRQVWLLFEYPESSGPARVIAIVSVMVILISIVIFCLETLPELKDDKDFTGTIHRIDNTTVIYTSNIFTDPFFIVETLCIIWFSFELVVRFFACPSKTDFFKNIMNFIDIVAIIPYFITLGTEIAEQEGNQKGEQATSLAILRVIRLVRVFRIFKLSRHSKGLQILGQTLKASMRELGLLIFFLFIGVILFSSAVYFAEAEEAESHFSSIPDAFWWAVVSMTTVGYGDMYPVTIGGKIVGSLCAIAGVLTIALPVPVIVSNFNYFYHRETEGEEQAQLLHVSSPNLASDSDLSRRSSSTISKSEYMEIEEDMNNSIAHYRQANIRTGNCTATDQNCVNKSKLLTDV

SMILES | IC50 [1] | IC50 [2]
C[C@@H]1NC(=O)[C@@H]2CSSC[C@H](NC(=O)[C@H]([C@@H](C)O)NC(=O)[C@H](CCCCN)NC(=O)[C@@H](NC(=O)[C@@H](N)CCCNC(=N)N)CSSC[C@@H](C(=O)NCC(=O)O)NC(=O)[C@H](CC(N)=O)NC(=O)[C@@H]3CCCN3C(=O)[C@H](CCCCN)NC(=O)[C@@H]3CCCN3C1=O)C(=O)N[C@@H](CO)C(=O)N[C@@H](CCCCN)C(=O)NCC(=O)N[C@@H](CCCNC(=N)N)C(=O)N2 [Arg11Ala] (H-RCKTCSKGRCAPKPNCG-OH; disulfide 2-16, 5-10) | 21500 nM | 811 ± 179 nM
C[C@@H]1NC(=O)[C@@H]2CCCN2C(=O)[C@H](CCCNC(=N)N)NC(=O)[C@@H]2CSSC[C@H](NC(=O)[C@H]([C@@H](C)O)NC(=O)[C@H](CCCCN)NC(=O)[C@@H](NC(=O)[C@@H](N)CCCNC(=N)N)CSSC[C@@H](C(=O)NCC(=O)O)NC(=O)[C@H](CC(N)=O)NC(=O)[C@@H]3CCCN3C1=O)C(=O)N[C@@H](CO)C(=O)N[C@@H](CCCCN)C(=O)NCC(=O)N[C@@H](CCCNC(=N)N)C(=O)N2 [Lys13Ala] (H-RCKTCSKGRCRPAPNCG-OH; disulfide 2-16, 5-10) | 4550 nM | 1080 nM
